The values that follow come from patent US8921576B2, “Spiroindoline compound, and medicinal agent comprising same” (Kowa Company, Ltd., priority 2011, dated 2014).

Structures are written as SMILES.

The assay concerns the target T1, GST-GK derived from human liver GK (Homo sapiens, UniProt P35557).
T1 construct: made in house; host or cells: Escherichia coli DH5α
T1 sequence (P35557 1-466 isoform P35557-2): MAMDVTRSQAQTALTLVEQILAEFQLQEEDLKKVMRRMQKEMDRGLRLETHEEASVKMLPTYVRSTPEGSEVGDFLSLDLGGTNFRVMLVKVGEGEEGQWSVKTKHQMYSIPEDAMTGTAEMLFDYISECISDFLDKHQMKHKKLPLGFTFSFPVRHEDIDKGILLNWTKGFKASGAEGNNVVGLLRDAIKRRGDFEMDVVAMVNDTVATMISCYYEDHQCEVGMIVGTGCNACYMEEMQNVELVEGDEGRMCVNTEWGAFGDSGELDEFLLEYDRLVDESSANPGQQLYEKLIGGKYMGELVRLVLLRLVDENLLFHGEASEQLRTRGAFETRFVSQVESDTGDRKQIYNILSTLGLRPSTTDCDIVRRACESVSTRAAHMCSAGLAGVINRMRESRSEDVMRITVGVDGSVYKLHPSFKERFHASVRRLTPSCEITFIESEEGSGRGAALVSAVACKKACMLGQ
The assay can be described thus: In vitro GK activity measurement test (G6PDH-coupled, OD340). The assay is classed as biochemical. The conditions noted are these: test compound 1 μmol/L; glucose 2.5 mmol/L; 25° C.; OD340 slope with compound / without compound; read-out: GK activation rate (%). From the text: cDNA (GenBank Accession No. NM_033507, human glucokinase, variant 2) encoding human liver-type GK polypeptide was cloned by performing a polymerase chain reaction (hereinafter referred to as “PCR”) using a human liver cDNA library (Human liver QUICK-Clone cDNA, TAKARA BIO INC.), and the thus cloned cDNA was then introduced into an expression vector (pGEX-3X, GE Healthcare Japan) for glutathione S transferase (hereinafter referred to as GST) fusion protein expression. The resulting vector was introduced into Escherichia coli (Competent high DH5α, Toyobo Co., Ltd.), and the transformed Escherichia coli was then cultured at 37° C. Thereafter, Isopropyl β-D-1-thiogalactopyranoside (final concentration: 1 mmol/L, Sigma Aldrich Japan) was added to the culture, and the obtained mixture was then cultured at 30° C. for 3 hours. Thereafter, a cell mass was recovered. The recovered cell mass was subjected to freezing-and-thawing, and the resulting cell mass was then suspended in phosphate buffer with final concentration of 1% Triton X-100, followed by disintegration with an ultrasonic disruptor. The homogenate was centrifuged at 33,200 rpm at 4° C. for 1 hour. Thereafter, the supernatant was recovered, and a GST-GK fusion protein was then purified using a glutathione column (GSTrap FF, GE Healthcare Japan). The obtained GST-GK fusion protein was divided into some portions each having a small volume, and the thus divided proteins were then preserved at −80° C.
A GK assay method was carried out at 25° C. at a final incubation volume of 100 μL in a flat-bottom 96-well assay plate. An assay buffer comprised 25 mmol/L Hepes buffer (pH 7.1), 25 mmol/L KCl, 2.5 mmol/L or 10 mmol/L D-glucose, 5 mmol/L ATP, 1 mmol/L nicotinamide adenine dinucleotide phosphate (abbreviated as NADP), 2 mmol/L MgCl2, 1 mmol/L dithiothreitol (DTT), 2 units/mL glucose-6 phosphate dehydrogenase (G6PDH), and 1 μg/mL GST-GK derived from human liver GK. ATP, G6PDH, and NADP were purchased from Roche Diagnostics. […] The thus mixed solution was preincubated in an incubator in which the temperature was controlled at 25° C. for 15 minutes. Subsequently, the reaction was initiated by adding 10 μL of the GST-GK solution to the reaction mixture, resulting in a final concentration of 0.1 μg/mL. After initiation of the reaction, an increase in the optical concentration at 340 nm (OD340) was monitored with a microplate spectrophotometer (Varsamax, Molecular Devices Japan K.K.) every 10 seconds over an incubation period of 10 minutes. An inclination of the OD340 increase was defined as raw data. The GK activating rate was indicated as a numerical value obtained from the expression: (Inclination of OD340 increase by addition of the test compound)/(inclination of OD340 increase without addition of the test compound). The results of the GK activating rate obtained at a test compound concentration of 1 μmol/L under the condition of a glucose concentration of 2.5 mmol/L are shown in the following table.
Consider `COc1ccc2nc(NC(=O)N3CC4(CCN(C(C)=O)C4)c4cc(S(=O)(=O)NCc5cccs5)ccc43)sc2n1` (centres unmarked) [Example 273, 1′-Acetyl-N-(5-methoxythiazolo[5,4-b]pyridin-2-yl)-5-(N-(thiophen-2-ylmethyl)sulfamoyl)spiro[indoline-3,3′-pyrrolidine]-1-carboxamide], for which the activity at 1 µM came to 692%.

`COCCN(Cc1ccccc1)S(=O)(=O)c1ccc2c(c1)C1(CCN(C(C)=O)C1)CN2C(=O)Nc1nc2ccc(OC)nc2s1` (centres unmarked) [Example 288, 1′-Acetyl-5-(N-benzyl-N-(2-methoxyethyl)sulfamoyl)-N-(5-methoxythiazolo[5,4-b]pyridin-2-yl)spiro[indoline-3,3′-pyrrolidine]-1-carboxamide]: the activity at 1 µM was 793%.

Regarding `COCCCN(Cc1ccccc1)S(=O)(=O)c1ccc2c(c1)C1(CCN(C(C)=O)C1)CN2C(=O)Nc1nc2ccc(OC)nc2s1` (centres unmarked) [Example 289, 1′-Acetyl-5-(N-benzyl-N-(3-methoxypropyl)sulfamoyl)-N-(5-methoxythiazolo[5,4-b]pyridin-2-yl)spiro[indoline-3,3′-pyrrolidine]-1-carboxamide], the activity at 1 µM was found to be 752%.

In the case of `COCCN(CC1CC1)S(=O)(=O)c1ccc2c(c1)C1(CCN(C(C)=O)C1)CN2C(=O)Nc1nc2ccc(OC)nc2s1` (centres unmarked) [Example 300, 1′-Acetyl-5-(N-(cyclopropylmethyl)-N-(2-methoxyethyl)sulfamoyl)-N-(5-methoxythiazolo[5,4-b]pyridin-2-yl)spiro[indoline-3,3′-pyrrolidine]-1-carboxamide], the activity at 1 µM turned out to be 689%.

For `COc1ccc2nc(NC(=O)N3CC4(CCN(C(C)=O)C4)c4cc(S(=O)(=O)N(CCO)CC5CC5)ccc43)sc2n1` (centres unmarked) [Example 302, 1′-acetyl-5-(N-(cyclopropylmethyl)-N-(2-hydroxyethyl)sulfamoyl)-N-(5-methoxythiazolo[5,4-b]pyridin-2-yl)spiro[indoline-3,3′-pyrrolidine]-1-carboxamide], the activity at 1 µM turned out to be 843%.

Regarding `COC(=O)N1CCC2(C1)CN(C(=O)Nc1nc3ccc(OC)nc3s1)c1ccc(S(=O)(=O)N(CCC(=O)O)Cc3ccccc3)cc12` (centres unmarked) [Example 307, 3-(N-benzyl-1′-(methoxycarbonyl)-1-((5-methoxythiazolo[5,4-b]pyridin-2-yl)carbamoyl)spiro[indoline-3,3′-pyrrolidin]-5-ylsulfonamido)propionic acid], the activity at 1 µM came to 887%.

Regarding `CN(C)CCN(Cc1ccccc1)S(=O)(=O)c1ccc2c(c1)C1(CCN(C=O)C1)CN2C(=O)Nc1ncc(F)s1` (centres unmarked) [Example 308, 5-(N-benzyl-N-(2-(dimethylamino)ethyl)sulfamoyl)-N-(5-fluorothiazol-2-yl)-1′-formylspiro[indoline-3,3′-pyrrolidine]-1-carboxamide], the activity at 1 µM came out at 504%.

For the molecule `COC(=O)N1CC[C@@]2(C1)CN(C(=O)Nc1ncc(Cl)s1)c1ccc(Br)cc12` [Example 320, (S)-methyl 5-bromo-1-((5-chlorothiazol-2-yl)carbamoyl)spiro[indoline-3,3′-pyrrolidin]-1′-ylcarboxylate], the activity at 1 µM is 818%.

Regarding `CCOC(=O)CSc1cnc(NC(=O)N2C[C@]3(CCN(C(=O)OC)C3)c3cc(Br)ccc32)s1` [Example 334, (S)-methyl 5-bromo-1-((5-((2-ethoxy-2-oxoethyl)thio)thiazol-2-yl)carbamoyl)spiro[indoline-3,3′-pyrrolidine]-1′-carboxylate], the activity at 1 µM was 705%.

Turning to `COC(=O)N1CC[C@@]2(C1)CN(C(=O)Nc1ncc(SCC(=O)O)s1)c1ccc(Br)cc12` [Example 336, (S)-2-((2-(5-bromo-1′-(methoxycarbonyl)spiro[indoline-3,3′-pyrrolidin]-1-ylcarboxamido)thiazol-5-yl)thio)acetic acid], the activity at 1 µM worked out at 451%.

As for `COC(=O)N1CC[C@@]2(C1)CN(C(=O)Nc1nc3ccc(OC)nc3s1)c1ccc(S(=O)(=O)N(CCCC(=O)O)Cc3ccccc3)cc12` [Example 342, (S)-4-(N-benzyl-1′-(methoxycarbonyl)-1-((5-methoxythiazolo[5,4-b]pyridin-2-yl)carbamoyl)spiro[indoline-3,3′-pyrrolidin]-5-ylsulfonamido)butyric acid], the activity at 1 µM was 420%.

With `COCCN(Cc1ccccc1)S(=O)(=O)c1ccc2c(c1)[C@@]1(CCN(C(=O)OC)C1)CN2C(=O)Nc1nc2ccc(OC)nc2s1` [Example 344, (S)-methyl 5-(N-benzyl-N-(2-methoxyethyl)sulfamoyl)-1-((5-methoxythiazolo[5,4-b]pyridin-2-yl)carbamoyl)spiro[indoline-3,3′-pyrrolidine]-1′-carboxylate], the activity at 1 µM amounted to 647%.

In the case of `COC(=O)N1CC[C@@]2(C1)CN(C(=O)Nc1nc3ccc(OC)nc3s1)c1ccc(S(=O)(=O)N(CCO)Cc3ccccc3)cc12` [Example 345, (S)-methyl 5-(N-benzyl-N-(2-hydroxyethyl)sulfamoyl)-1-((5-methoxythiazolo[5,4-b]pyridin-2-yl)carbamoyl)spiro[indoline-3,3′-pyrrolidine]-1′-carboxylate], the activity at 1 µM was determined as 785%.

Turning to `COC(=O)N1CC[C@@]2(C1)CN(C(=O)Nc1nc3ccc(OC)nc3s1)c1ccc(S(=O)(=O)N(CCN(C)C)Cc3ccccc3)cc12` [Example 347, (S)-methyl 5-(N-benzyl-N-(2-(dimethylamino)ethyl)sulfamoyl)-1-((5-methoxythiazolo[5,4-b]pyridin-2-yl)carbamoyl)spiro[indoline-3,3′-pyrrolidine]-1′-carboxylate], the activity at 1 µM was 611%.

`COC(=O)N1CC[C@@]2(C1)CN(C(=O)Nc1ncc(Cl)s1)c1ccc(Cl)cc12` [Example 351, (S)-methyl 5-chloro-1-((5-chlorothiazol-2-yl)carbamoyl)spiro[indoline-3,3′-pyrrolidine]-1′-carboxylate]: the activity at 1 µM was 886%.

Regarding `NCC(=O)N1CC[C@@]2(C1)CN(C(=O)Nc1ncc(Cl)s1)c1ccc(Cl)cc12` [Example 353, (R)-1′-(2-aminoacetyl)-5-chloro-N-(5-chlorothiazol-2-yl)spiro[indoline-3,3′-pyrrolidine]-1-carboxamide], the activity at 1 µM is 486%.

Take `COC(=O)N1CC[C@@]2(C1)CN(C(=O)Nc1ncc(F)s1)c1ccc(Cl)cc12` [Example 355, (S)-methyl 5-chloro-1-((5-fluorothiazol-2-yl)carbamoyl)spiro[indoline-3,3′-pyrrolidine]-1′-carboxylate]: the activity at 1 µM came out at 636%.

With `CNC(=O)N1CCC2(C1)CN(C(=O)Nc1ncc(Cl)s1)c1ccc(Cl)cc12` (centres unmarked) [Example 373, 5-chloro-N1-(5-chlorothiazol-2-yl)-N1′-methylspiro[indoline-3,3′-pyrrolidine]-1,1′-dicarboxamide], the activity at 1 µM amounted to 476%.

As for `CNC(=O)N1CC[C@@]2(C1)CN(C(=O)Nc1ncc(F)s1)c1ccc(Cl)cc12` [Example 374, (R)-5-chloro-N1-(5-fluorothiazol-2-yl)-N1′-methylspiro[indoline-3,3′-pyrrolidine]-1,1′-dicarboxamide], the activity at 1 µM was 437%.

For `CNC(=O)N1CC[C@@]2(C1)CN(C(=O)Nc1ncc(Cl)s1)c1ccc(C#N)cc12` [Example 376, (R)—N1-(5-Chlorothiazol-2-yl)-5-cyano-N1′-methylspiro[indoline-3,3′-pyrrolidine]-1,1′-dicarboxamide], the activity at 1 µM is 528%.
